In the experiment the target is SUMO E1/E2 (Homo sapiens) (UniProt Q9UBE0+Q9UBT2+P63279). Description: Inhibition of purified SUMO E1/E2 (unknown origin)-mediated conjugation of His6-SUMO-1 to fluorescent peptide FL-AR at 30 uM after 90 mins by microfluidic electrophoretic mobility shift assay. Format: protein-complex assay.

Molecules are shown by their SMILES. Activity calls are given as the source filed them. The rule behind the calls is not given here.

Drawing on ChEMBL document CHEMBL3112451, “Synthesis of 2',3',4'-trihydroxyflavone (2-D08), an inhibitor of protein sumoylation” (Bioorg Med Chem Lett, 2014), this text covers inhibition for 3 molecules.

Regarding `O=c1cc(-c2ccc(O)c(O)c2O)oc2ccccc12`, the inhibition entry is “Active”.
The value for `O=C(/C=C(\O)c1ccccc1O)c1ccc(O)c(O)c1O` was “Active”; that for `O=c1cc(-c2ccccc2O)oc2c(O)c(O)ccc12` was “inactive”.
